For data set [1], the system named is SKMES human non-small cell lung carcinoma cell line. Kind of data set: MTT growth inhibition assay, single agents and fixed-ratio combinations with elsamitrucin (Chou-Talalay, CalcuSyn), SKMES. The data set is classed as cell-based. As for the experimental part: These individual agents and their combinations were evaluated for in vitro activity against the HT29 colon carcinoma, SKMES non-small cell lung carcinoma, and Daudi B-lymphoblastic cell lines. Cell growth in 96-well microculture plates was determined with a semi-automated MTT assay. Efficacies of drug combinations were analyzed according to the methods of Chou and Talalay, utilizing CalcuSyn software. Twenty-one in vitro experiments were conducted to determine the individual and combined growth inhibitory activities of elsamitrucin and the ten selected agents in the three cell lines.
b. Cell Lines. The human HT29 colon carcinoma, SKMES non-small cell lung carcinoma, and Daudi B-lymphoblastic cell lines were originally obtained from ATCC (American Type Culture Collection). These cell lines have been maintained and stored as frozen stocks. […] The medium for Daudi cells was additionally supplemented with 1 mM sodium pyruvate.
c. Growth Inhibition Assay. Anti-proliferative activities against the HT29, SKMES, and Daudi cell lines were evaluated in vitro by the MTT assay. Cells (1,500-2,000 cells/well) were seeded in a 96-well microculture plate in 180 pL of medium/well. […] DMSO was present in all wells at a final concentration of 0.1%. […] When the appropriate cell density was attained in the control wells, the plates were centrifuged briefly, and 100 pL of the growth medium was removed. The cell cultures were incubated with 50 μL of MTT reagent (1 mg/mL in Dulbecco's phosphate-buffered saline) for 4 hr at 37° C. The resultant purple formazan precipitate was solubilized with 200 μL of 0.04 N HCl in isopropanol.
The results of each experiment were stored in Excel format.
d. Preliminary Experiments: Design and Data Analysis. […] The initial experiments utilized serial three-fold dilutions of the drugs to produce ten test concentrations over a broad concentration range. Based on the initial results, a narrower concentration range was selected, and serial 1:1.5 dilutions were utilized to produce ten test concentrations. Experiments were repeated as needed.
For assays that utilized lower dilution factors to produce narrower concentration ranges, the results were analyzed with both Prism and CalcuSyn (as described below) to allow comparison of the IC50 and Da, values. The results guided the selection of appropriate concentration ranges and concentration ratios for the combination experiments.
e. Combination Experiments: Design and Data Analysis. The fixed-ratio design of Chou was used for the combination experiments. For each experiment, the drug solutions were mixed at a ratio that was expected to provide approximately equipotent concentrations, and the mixture was serially diluted with medium containing 1% DMSO to yield 10× stock solutions of the test concentrations. […] Each agent was tested individually and in combination at seven concentrations. The concentration range selected for each assay was designed to bracket the concentrations that produced half-maximal effects (ED50) with each single agent and their mixture. The concentrations used for the single-drug assays were twice as high as their concentrations in the mixture. Each assay was performed in quadruplicate. For each drug combination, the individual agents and their mixture were assayed on the same 96-well plate. The effects of the individual drugs and their combinations were analyzed by the method of Chou and Talalay. The results of each experiment were entered into CalcuSyn (BIOSOFT) for dose-effect analysis.
where Acontrol and Adrug are the respective absorbances of vehicle control and drug-treated wells in the MIT assay.
where the slope, m, is related to the sigmoidicity of the dose-effect curve, with m=1, >1, and <1 indicating hyperbolic, sigmoidal, and reverse sigmoidal shapes, respectively.

For data set [2] the following is noted: i.p., qd x5; cited from earlier work.
Data set [3] is described as follows: HCT116-e256 study: toxicity (body weight, treatment-related deaths, clinical signs). Format: in vivo, nude mice. An excerpt: f. Toxicity. Animals were weighed daily for the first five days of the study and then twice weekly. […] Acceptable toxicity is defined as a group mean body-weight loss of less than 20% during the study and not more than one treatment-related (TR) death among ten treated animals. […] A death was classified as TR if attributable to treatment side effects as evidenced by clinical signs and/or necropsy, or may be classified as TR if due to unknown causes during the dosing period or within 10 days of the last dose. A death was classified as an NTR if there is no evidence that death was related to treatment side effects.

Data set [4] deals with HCT116 human colon carcinoma. To be noted: i.v., qod x5; cited from earlier work.
[5] abbreviates: Homo sapiens, SPA-02 (SKMES-e22), single agent, dilution 1:3, read-out: Prism IC50.
Where [6] appears, read: Homo sapiens, SPA-03 (SKMES-e23), single agent, dilution 1:1.5, read-out: CalcuSyn Dm.
The mark [7] stands for this setting: Homo sapiens, SPA-03 (SKMES-e23), single agent, dilution 1:1.5, read-out: Prism IC50.
Where [8] appears, read: Homo sapiens, average of preliminary single-agent experiments, SKMES, read-out: Average IC50, Dm value.
The mark [9] stands for this setting: Groups 2,4,6,8,10: elsamitrucin 10 mg/kg ip q4d x3, paclitaxel 15 mg/kg iv qod x5, cisplatin 2.7 mg/kg ip qd x5.
Setting [10] is: Groups 3,5,7,9,11: elsamitrucin 5 mg/kg ip q4d x3, paclitaxel 7.5 mg/kg iv qod x5, cisplatin […] ip qd x5.

The text below walks through data of patent publication US20080181971A1, “Combination Cancer Treatments Comprising Elsamitrucin and Other Agents” (priority 2007, published 2008).

pIC50: −log10 of the molar value. Where two headings read alike, the source gives them in different places.

Regarding `N.N.[Cl][Pt][Cl]` [Cisplatin, cisplatin], the pIC50 is 5.78 in data set [1] (SKMES growth inhibition, second agent alone, one value per plate (Experiment ID), read-out: Dm Value (95% Confidence Interval), Individually, Second Agent); 5.78 in data set [1] (SKMES, single agent on the same plate as the combination, read-out: Dm Value, Individually, Second Agent); 6.17 in data set [1] (SPA-02 (SKMES-e22), single agent, dilution 1:3, read-out: Prism IC50); 5.93 in data set [1] (SPA-03 (SKMES-e23), single agent, dilution 1:1.5, read-out: CalcuSyn Dm); 5.94 in data set [1] (SPA-03 (SKMES-e23), single agent, dilution 1:1.5, read-out: Prism IC50); 6.00 in data set [1] (average of preliminary single-agent experiments, SKMES, read-out: Average IC50, Dm value). Moreover, the “decrease of Dm in the combination” value in data set [1] (SKMES, in combination with elsamitrucin versus single agent) is 47%. Also, in data set [2], the “MTD revealed in previous studies” value is on record as 2.7 mg/kg.

As for `CC(=O)O[C@H]1C(=O)[C@@]2(C)[C@H]([C@H](OC(=O)c3ccccc3)[C@]3(O)C[C@H](OC(=O)[C@H](O)[C@@H](NC(=O)c4ccccc4)c4ccccc4)C(C)=C1C3(C)C)[C@]1(OC(C)=O)CO[C@@H]1C[C@@H]2O` [Paclitaxel, paclitaxel], the pIC50 was 8.46 in data set [1] (Homo sapiens, SKMES growth inhibition, second agent alone, one value per plate (Experiment ID), read-out: Dm Value (95% Confidence Interval), Individually, Second Agent); 8.46 in data set [1] (Homo sapiens, SKMES, single agent on the same plate as the combination, read-out: Dm Value, Individually, Second Agent); 8.96 in data set [1] (setting [5]); 8.55 in data set [1] (setting [6]); 8.59 in data set [1] (setting [7]); 8.70 in data set [1] (setting [8]). In addition, the “Day of Mean BW Nadir” value in data set [3] (setting [9]) came out at 7 days. For the same compound, the “Mean BW Nadir (lowest group mean body weight, as % change from Day 1)” value in data set [3] (setting [9]) is on record as −4.6%. In addition, the “No. of NTR (non-treatment-related death)” value in data set [3] (setting [9]) and in data set [3] (setting [10]) was 0 each time. Also, the “No. of TR (treatment-related death)” value in data set [3] (setting [9]) and in data set [3] (setting [10]) was 0 throughout. Moreover, the “optimum therapeutic dose identified in previous studies” value in data set [4] is on record as 30 mg/kg.

On to `CO[C@@H]1[C@@H](N)[C@@H](O[C@H]2[C@H](Oc3cccc4c(O)c5c(=O)oc6ccc(C)c7c(=O)oc(c34)c5c67)O[C@H](C)[C@H](O)[C@]2(C)O)O[C@H](C)[C@@H]1O` [Elsamitrucin, benzo(h)(1)benzopyrano(5,4,3-cde)(1)ebnzopyran-5,12-dione,10((2-O-(2-amino-2,6-dideoxy-3-O-methyl-alpha-D-galactopyranosyl)-6-deoxy-3-C-methyl-beta-D-galactopyranosyl)oxy)-6-hydroxy-1-methyl], for which the pIC50 in data set [1] (Homo sapiens, SKMES cells, single agent, read-out: average Dm) was 7.66; in data set [1] (Homo sapiens, SKMES, single agent, ten assays of Table 5, read-out: average Dm) it was 7.66; in data set [1] (Homo sapiens, SKMES, single agent, ten assays of Table 5, read-out: range of Dm), 7.28 to 7.96; in data set [1] (setting [5]), 7.92; in data set [1] (setting [6]), 7.59; in data set [1] (setting [7]), 7.61. In data set [1] (setting [8]), the pIC50 was 7.68. Besides, the “Day of Mean BW Nadir” value in data set [3] (setting [9]) and in data set [3] (setting [10]) was 7 days each time. The “Mean BW Nadir (lowest group mean body weight, as % change from Day 1)” value in data set [3] (setting [9]) was −8.4%; in data set [3] (Groups 3,5,7,9,11: elsamitrucin 5 mg/kg ip q4d x3, paclitaxel 7.5 mg/kg iv qod x5, cisplatin […] ip qd x5, — indicates no decrease in mean body weight was observed), −4.8%. In addition, the “No. of NTR (non-treatment-related death)” value in data set [3] (setting [9]) and in data set [3] (setting [10]) was 0 each time. The “No. of TR (treatment-related death)” value in data set [3] (setting [9]) and in data set [3] (setting [10]) was 0 in each case. Moreover, the “group body weight loss” value in data set [3] (elsamitrucin 10 mg/kg, in monotherapy and in the combinations) is given as “modest group BW losses”.
